Results as given in patent US20130303518A1, “Methods of Inhibiting the Catalytic Activity of a Protein Kinase and of Treating a Protein Kinase Related Disorder” (JIANGSU HANSOH PHARMACEUTICAL CO., LTD., priority 2007, published 2013).
Entries after “also recorded” stand apart in the source; their conditions may differ. Marks after values point to notes of the source that are not given here.

Columns and labels:
[1] = target: T1, recombinant human VEGF-R2 (Homo sapiens, UniProt P35968); test: VEGFR-2 kinase assay (ELISA, time-resolved fluorescence); type: biochemical; conditions: recombinant human VEGF-R2, 10 μM ATP, 25° C., 30 minutes; read-out: IC50 (VEGFR-2/bio)
T1 construct: purchased Cell signaling technology #7787
Procedure: This assay is used to measure the in vitro kinase activity of recombinant human VEGF-R2 in an ELISA assay.
• a. […] Stop Buffer: 50 mM EDTA, pH 8.0. • d.
The following protocol was used: • 1. The test compound was diluted with DMSO to the desired final assay concentration. […] 6 μM substrate peptide (Tyr87) was diluted with dH2O (1:1), 15 μl was added to every assay. • 3. VEGFR-2 enzyme was immediately transferred from −80° C. to ice, and the enzyme was allowed to thaw on ice. • 4. 2.2 μg VEGFR-2 enzyme was taken to the enzyme tube. • 5. […] 0.75 ml of DTT/Kinase buffer was transferred to each enzyme tube to prepare 4× reaction cocktail, and 7.5 μl 4× reaction cocktail was added to every assay. • 7. […] The reaction tube was incubated at 25° C. for 30 minutes. • 9. 30 μl/assay stop buffer (50 mM EDTA, pH 8.0) was added to stop the reaction. • 10. 25 μl of each reaction and 75 μl dH2O/well was transferred to a 96-well streptavidin coated plate, with shaking at room temperature for 60 minutes. • 11. Each well was washed three times with 200 μl PBS-T buffer. Plate was patted on paper towel to remove excess liquid. • 12. […] The reaction tube was incubated, with shaking at room temperature for 60 minutes. • 14. Washing was carried out as described above in step 11. • 15. Europium labeled anti-mouse IgG was diluted 1:500 in PBS-T buffer with 1% BSA, 100 μl diluted antibody was added to each well. • 16. The reaction tube was incubated, with shaking at room temperature for 30 minutes. • 17. Each well was washed five times with 200 μl PBS-T buffer. Plate was patted on paper towel to remove excess liquid. • 18. 100 μl/well DELFIA® Enhancement Solution was added. • 19. The reaction tube was incubated, with shaking at room temperature for 5 minutes. • 20.
The IC50 value can be derived from the IRs of compounds at different concentration gradients.

HUVEC cell = test: Inhibition of cell proliferation assay (SRB) on VEGFR high expressing HUVEC cells; conditions: Homo sapiens, 72 h, read-out: IC50 (VEGFR/HUVEC)
Procedure: The following in vitro assay may be used to determine the level of activity and effect of different compounds of the present invention on the proliferation inhibition (cell toxic) of endothelium growth factor receptor (VEGFR) high expressing Homo sapiens cancer cell-HUVEC cell.
Then the cells are put back to the incubator and cultured for continuous 72 hours. 72 hours later, the cell exposed to compounds and control cell are assayed for their proliferation using Sulforhodamine B (SRB) method.
HUVEC cells were grown in growth media (DMEM/F12, supplemented with 10% FBS) in 100 mm corning culture plates till confluence at 37° C., 5% CO2. • 2. HUVEC cells were washed in 100 mm plates with FBS, then the cells were harvested by trypsinization and seeded to corning 96-well cell culture plates at concentration of 50000 cells/ml, leaving 6 wells/each plate empty as background. • 3. […] The compounds stock solution was prepared, using DMSO to solve candidate compounds to a concentration of 20 mM. Then DMSO was used to dilute the stock solution to a serious concentration of tested compounds solution (namely, 2 mM, 1 mM, 0.2 mM, 20 μM, 2 μM, 0.2 μM). • 5. […] Each DMSO serial concentration compound solution was diluted by 20 times with culture medium by adding 5 μl DMSO compound solution to 95 μl culture medium, then mixed well by vortex. This promised that the DMSO concentration at that the HUVEC cell will exposed to will not surpass 0.5%. • 6. […] Each well was added 180 μl medium, then 20 μl medium solution of tested compounds prepared at step 5 was added to each well. For negative control group cell, 20 μl culture medium containing 0.5% pure DMSO was added. So, HUVEC cells were exposed to each tested compound at a serial final concentration of 100 μM, 10 μM, 5 μM, 1 μM, 0.1 μM, 0.01 μM, and 0.001 μM. • 7. The culture plates were put back to incubator, and cultured for 72 hours at 37° C., 5% CO2. • 8. 72 hours later, cultures were removed from incubator into sterile work area. • 9. The fixative (50% Trichloroacetic Acid-TCA) was prepared by adding reagent grade water to the TCA, fixing the cells by gently layering 50 μl of cold TCA solution on top of the growth medium. • 10. The plates was incubated for 1 hour at 4° C. and then rinsed with water several times to remove TCA, serum proteins, etc. Plates were air dried and stored until use. Bland background optical density was measured in wells incubated with growth medium without cells. • 11. 0.4% Sulforhodamine B solution was prepared by using 10% acetic acid solution. 50 μl sulforhodamine B solution was added to each well of 96-well plates. • 12. The cells were allowed to stain for 30 minutes. • 13. The wash solution of 10% acetic acid was prepared. At the end of the staining period, the stain was removed and the cells were rinsed quickly with 1% acetic acid. Repeat until unincorporated dye was removed. Wash times were kept to a minimum to reduce desorption of protein-bound dye. After being rinsed, the cultures were air dried. • 14. […] Then cultures were allowed to stand for 5 minutes at room temperature, and the mixing of the dye was enhanced by gentle stirring in a gyratory shaker. • 15. The absorbance was measured by spectrophotometry at a wavelength of 565 nm. The background absorbance of 96-well plates at 690 nm was measured and subtracted from the measurement at 565 nm. • 16. The inhibition rate (IR) was calculated as follows:

HT-29 human colon cancer = test: Therapeutic effects against xenografts of HT-29 human colon cancer in nude mice; type: in vivo
Procedure: The therapeutic effects of Example 63 against xenografts of HT-29 human colon cancer in nude mice were estimated.
The therapeutic effects of the compound of Example 63 against xenografts of HT-29 human colon cancer in nude mice were estimated.
Preparation method: the compound of Example 63 was prepared to corresponding concentration with distilled water.
Six to seven-week-old BALB/cA-nude female mice was purchased from Slaccas Experimental Animal. Certificate No.: SCXK(Shanghai) 2003˜0003. Raising Conditions: SPF level.
Nude mice were hypodermic inoculated HT-29 human colon cancer cell. After tumors grew to 100-300 mm^3, mice were randomly divided into teams (d0). The volume of tumors and weigh of the mice were measured for 2-3 times per week. The calculation formula of the volume of tumor (V) is: V=½×a×b^2, a: length of tumor, b: width of tumor.

T1 sequence (P35968 20-1356): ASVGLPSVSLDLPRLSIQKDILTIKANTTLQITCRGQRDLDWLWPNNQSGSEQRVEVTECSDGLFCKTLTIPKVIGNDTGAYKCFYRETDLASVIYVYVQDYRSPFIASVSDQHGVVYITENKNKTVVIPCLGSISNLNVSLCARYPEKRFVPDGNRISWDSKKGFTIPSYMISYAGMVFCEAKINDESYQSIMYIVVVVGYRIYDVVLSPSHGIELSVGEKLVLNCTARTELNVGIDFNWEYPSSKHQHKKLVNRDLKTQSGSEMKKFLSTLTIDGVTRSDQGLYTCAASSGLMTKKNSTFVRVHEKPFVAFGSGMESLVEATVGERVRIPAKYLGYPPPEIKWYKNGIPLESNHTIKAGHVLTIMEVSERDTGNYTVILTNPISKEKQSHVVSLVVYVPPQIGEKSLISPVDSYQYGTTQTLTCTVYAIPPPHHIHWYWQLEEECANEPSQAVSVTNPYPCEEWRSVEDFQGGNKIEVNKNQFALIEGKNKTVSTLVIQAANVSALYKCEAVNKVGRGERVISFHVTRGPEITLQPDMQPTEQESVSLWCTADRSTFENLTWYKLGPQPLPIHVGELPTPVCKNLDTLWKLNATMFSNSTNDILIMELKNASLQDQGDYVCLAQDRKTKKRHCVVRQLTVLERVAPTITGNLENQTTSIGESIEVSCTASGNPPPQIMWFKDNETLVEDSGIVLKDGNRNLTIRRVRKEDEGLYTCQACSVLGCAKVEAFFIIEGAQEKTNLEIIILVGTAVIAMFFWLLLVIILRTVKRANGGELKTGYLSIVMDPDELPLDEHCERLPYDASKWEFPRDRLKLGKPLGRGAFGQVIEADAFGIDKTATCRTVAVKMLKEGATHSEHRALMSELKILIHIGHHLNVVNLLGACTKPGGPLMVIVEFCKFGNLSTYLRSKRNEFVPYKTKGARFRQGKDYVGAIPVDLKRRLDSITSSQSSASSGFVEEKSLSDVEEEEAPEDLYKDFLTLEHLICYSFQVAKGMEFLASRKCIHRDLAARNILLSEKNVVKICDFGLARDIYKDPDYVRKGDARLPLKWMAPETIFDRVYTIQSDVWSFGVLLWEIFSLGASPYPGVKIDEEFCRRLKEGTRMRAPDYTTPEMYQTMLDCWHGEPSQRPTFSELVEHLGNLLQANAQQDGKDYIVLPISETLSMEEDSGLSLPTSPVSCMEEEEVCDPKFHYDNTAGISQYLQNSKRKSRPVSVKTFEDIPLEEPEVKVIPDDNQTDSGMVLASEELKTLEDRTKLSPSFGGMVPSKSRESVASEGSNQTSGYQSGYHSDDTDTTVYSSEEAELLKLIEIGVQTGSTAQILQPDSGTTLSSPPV

| Structure (SMILES) | IC50 [1] | IC50 (HUVEC cell) | other results |
| --- | --- | --- | --- |
| Cc1c(/C=C2\C(=O)Nc3cccc(-c4cccc(F)c4F)c32)[nH]c2c1C(=O)N(CCN1CCOCC1)CCC2 [Example 12, (Z)-2-[4-(2,3-Difluoro-phenyl)-2-oxo-1,2-dihydro-indol-3-ylidenemethyl]-3-methyl-5-(2-morpholin-4-yl-ethyl)-5,6,7,8-tetrahydro-1H-pyrrolo[3,2-c]azepin-4-one] | 1 nM | 300 nM | – |
| CCN(CC)CCN1CCCc2[nH]c(/C=C3\C(=O)Nc4cccc(C)c43)c(C)c2C1=O [Example 16, (Z)-5-(2-Diethylamino-ethyl)-3-methyl-2-(4-methyl-2-oxo-1,2-dihydro-indol-3-ylidenemethyl)-5,6,7,8-tetrahydro-1H-pyrrolo[3,2-c]azepin-4-one] | 1.3 nM | 210 nM | – |
| CCN(CC)CCN1CCCc2[nH]c(/C=C3\C(=O)Nc4c(Br)cc(F)cc43)c(C)c2C1=O [Example 4, (Z)-2-(7-Bromo-5-fluoro-2-oxo-1,2-dihydro-indol-3-ylidenemethyl)-5-(2-diethylamino-ethyl)-3-methyl-5,6,7,8-tetrahydro-1H-pyrrolo[3,2-c]azepin-4-one] | 41 nM | 404 nM | – |
| CCN(CC)CCN1CCCc2[nH]c(/C=C3\C(=O)Nc4cc(NC(=O)C(C)(C)O)c(F)cc43)c(C)c2C1=O [Example 9, (Z)—N-{3-[5-(2-Diethylamino-ethyl)-3-methyl-4-oxo-1,4,5,6,7,8-hexahydro-pyrrolo[3,2-c]azepin-2-ylmethylene]-5-fluoro-2-oxo-2,3-dihydro-1H-indol-6-yl}-2-hydroxy-2-methyl-propionamide] | 490 nM | 68 nM | – |
| CCN(CC)CCN1CCCc2[nH]c(/C=C3\C(=O)Nc4ccc(Br)cc43)c(C)c2C1=O [Example 5] | 8.5 nM | 100 nM | – |
| CCN(CC)CCN1CCCc2[nH]c(/C=C3\C(=O)Nc4cc(NCc5ccc(F)cc5)c(F)cc43)c(C)c2C1=O [Example 3, (Z)-5-(2-Diethylamino-ethyl)-2-[5-fluoro-6-(4-fluoro-benzylamino)-2-oxo-1,2-dihydro-indol-3-ylidenemethyl]-3-methyl-5,6,7,8-tetrahydro-1H-pyrrolo[3,2-c]azepin-4-one] | 280 nM | 100 nM | – |
| CCN(CC)CCN1CCCc2[nH]c(/C=C3\C(=O)Nc4cccc(-c5cccc(F)c5F)c43)c(C)c2C1=O [Example 6, (Z)-5-(2-Diethylamino-ethyl)-2-[4-(2,3-difluoro-phenyl)-2-oxo-1,2-dihydro-indol-3-ylidenemethyl]-3-methyl-5,6,7,8-tetrahydro-1H-pyrrolo[3,2-c]azepin-4-one] | 23 nM | 280 nM | – |
| Cc1c(/C=C2\C(=O)Nc3cc(NC(=O)[C@H](C)O)c(F)cc32)[nH]c2c1C(=O)N(CCN1CCOCC1)CCC2 [Example 21, (S,Z)—N-{5-Fluoro-3-[3-methyl-5-(2-morpholin-4-yl-ethyl)-4-oxo-1,4,5,6,7,8-hexahydro-pyrrolo[3,2-c]azepin-2-ylmethylene]-2-oxo-2,3-dihydro-1H-indol-6-yl}-2-hydroxy-propionamide] | 160 nM | – | – |
| CCN(CC)CCN1CCCc2[nH]c(/C=C3\C(=O)Nc4cc(OC)ccc43)c(C)c2C1=O [Example 15, (Z)-5-(2-Diethylamino-ethyl)-2-(6-methoxy-2-oxo-1,2-dihydro-indol-3-ylidenemethyl)-3-methyl-5,6,7,8-tetrahydro-1H-pyrrolo[3,2-c]azepin-4-one] | 2 nM | 1200 nM | – |
| CCN(CC)CCN1CCCc2[nH]c(/C=C3\C(=O)Nc4ccc(Cl)cc43)c(C)c2C1=O [Example 2] | 21 nM | 288 nM | – |
| Cc1c(/C=C2\C(=O)Nc3c(NC=O)cc(F)cc32)[nH]c2c1C(=O)N(CCN1CCOCC1)CCC2 [Example 20, (Z)—N-{5-Fluoro-3-[3-methyl-5-(2-morpholin-4-yl-ethyl)-4-oxo-1,4,5,6,7,8-hexahydro-pyrrolo[3,2-c]azepin-2-ylmethylene]-2-oxo-2,3-dihydro-1H-indol-7-yl}-formamide] | 72 nM | – | – |
| CCN(CC)CCN1CCCc2[nH]c(/C=C3\C(=O)Nc4cc(NC(=O)[C@H](C)O)c(F)cc43)c(C)c2C1=O [Example 8, (S,Z)—N-{3-[5-(2-Diethylamino-ethyl)-3-methyl-4-oxo-1,4,5,6,7,8-hexahydro-pyrrolo[3,2-c]azepin-2-ylmethylene]-5-fluoro-2-oxo-2,3-dihydro-1H-indol-6-yl}-2-hydroxy-propionamide] | 115 nM | 308 nM | – |
| Cc1c(/C=C2\C(=O)Nc3cc(NCc4ccc(F)cc4)c(F)cc32)[nH]c2c1C(=O)N(CCN1CCOCC1)CCC2 [Example 19, (Z)-2-[5-Fluoro-6-(4-fluoro-benzylamino)-2-oxo-1,2-dihydro-indol-3-ylidenemethyl]-3-methyl-5-(2-morpholin-4-yl-ethyl)-5,6,7,8-tetrahydro-1H-pyrrolo[3,2-c]azepin-4-one] | 12 nM | 146 nM | – |
| CCN(CC)CCN1CCCc2[nH]c(/C=C3\C(=O)Nc4cccc(CCO)c43)c(C)c2C1=O [Example 17, (Z)-5-(2-Diethylamino-ethyl)-2-[4-(2-hydroxy-ethyl)-2-oxo-1,2-dihydro-indol-3-ylidenemethyl]-3-methyl-5,6,7,8-tetrahydro-1H-pyrrolo[3,2-c]azepin-4-one] | 1 nM | 129 nM | – |
| CCN(CC)CCN1CCCc2[nH]c(/C=C3\C(=O)Nc4cc(NC(=O)COC)c(F)cc43)c(C)c2C1=O [Example 7, (Z)—N-{3-[5-(2-Diethylamino-ethyl)-3-methyl-4-oxo-1,4,5,6,7,8-hexahydro-pyrrolo[3,2-c]azepin-2-ylmethylene]-5-fluoro-2-oxo-2,3-dihydro-1H-indol-6-yl}-2-methoxy-acetamide] | 690 nM | – | – |
| CCN(CC)CCN1CCCc2[nH]c(/C=C3\C(=O)Nc4cccc(Br)c43)c(C)c2C1=O [Example 13, (Z)-2-(4-Bromo-2-oxo-1,2-dihydro-indol-3-ylidenemethyl)-5-(2-diethylamino-ethyl)-3-methyl-5,6,7,8-tetrahydro-1H-pyrrolo[3,2-c]azepin-4-one] | 3 nM | 804 nM | – |
| CCN(CC)CCN1CCCc2[nH]c(/C=C3\C(=O)Nc4ccc(F)cc43)c(C)c2C1=O [Example 63, malate] | – | – | T/C (%) (HT-29 human colon cancer; 40 mg/kg p.o d0~12, P < 0.01 vs control): 31.5* %; RTV (relative tumor volume) (HT-29 human colon cancer; X ± SD, 40 mg/kg p.o d0~12, dn vs d0): 0.80 ± 0.42; TV (volume of tumor) dn (HT-29 human colon cancer; X ± SD, 40 mg/kg p.o d0~12, dn: the 13th day after the first dosage): 300 ± 154 mm^3; tolerance of mice to the compound (in words) (HT-29 human colon cancer; continuous oral dosing, nude mice, malate): well tolerant; also recorded: well tolerant to the compound without obvious toxicity |
| CCN(CC)CCN1CCCc2[nH]c(/C=C3\C(=O)Nc4ncc(Br)cc43)c(C)c2C1=O [Example 14] | 4 nM | 457 nM | – |
| Cc1c(/C=C2\C(=O)Nc3ccc(Cl)cc32)[nH]c2c1C(=O)N(CCN1CCOCC1)CCC2 [Example 10] | 14 nM | 123 nM | – |
| COCC(=O)Nc1cc2c(cc1F)/C(=C/c1[nH]c3c(c1C)C(=O)N(CCN1CCOCC1)CCC3)C(=O)N2 [Example 18, (Z)—N-{5-Fluoro-3-[3-methyl-5-(2-morpholin-4-yl-ethyl)-4-oxo-1,4,5,6,7,8-hexahydro-pyrrolo[3,2-c]azepin-2-ylmethylene]-2-oxo-2,3-dihydro-1H-indol-6-yl}-2-methoxy-acetamide] | 10 nM | – | – |
